Experimental findings from US11771738B2 (Zoetis Services LLC, priority 2018, dated 2023) are described below.

Common to all, as to format: cell-based
Assay [1] deals with microfilariae of Dirofilaria immitis. Put plainly: Dirofilaria immitis, Microfilaria (DiMf) In Vitro Assay. The following applies: Dirofilaria immitis, 72 h, read-out: DiMf MED, Minimum Effective Dose, D. immitis microfilariae motility, in vitro.
The test system of another assay is D. immitis L4 larvae. Put plainly: Dirofilaria immitis, L4 Stage (DiL4) In Vitro Assay. To be noted: for minimal effective concentration: Dirofilaria immitis, 72 h, read-out: DiL4 MED, Minimum Effective Dose, D. immitis L4 larvae motility, in vitro; for DiMf/DiL4: larval stage selectivity, ratio of DiMf MED to DiL4 MED.
For assay [2], the system named is third stage larvae of Haemonchus contortus. As to the kind of experiment: Haemonchus contortus, Larvae Stage 3 (HcL3) In Vitro Assay. The following applies: Haemonchus contortus, 96 h.
The mark [3] stands for this setting: read-out: HcL3 MED (symbol after Ex#), approximately 96 hours incubation, multiple-resistant field isolate.
[4] abbreviates: read-out: HcL3 MED, Minimum Effective Dose, H. contortus third stage larvae, approximately 96 hours.
[5] abbreviates: read-out: HcL3 MED, approximately 96 hours incubation, multiple-resistant field isolate.
Where [6] appears, read: read-out: HcL3 MED, Haemonchus contortus third stage larvae in vitro, class mark appended to the Ex # in Table 3.

Read-outs that look alike come from different tables or passages of the source.

On to `CC(C)C[C@H]1C(=O)O[C@H](Cc2ccc(Cc3occc3C#N)cc2)C(=O)N(C)[C@@H](CC(C)C)C(=O)O[C@H](C)C(=O)N(C)[C@@H](CC(C)C)C(=O)O[C@H](Cc2ccccc2)C(=O)N(C)[C@@H](CC(C)C)C(=O)O[C@H](C)C(=O)N1C` [Example 4-40, 2-(4-(((2R,5S,8R,11S,14R,17S,20R,23S)-14-benzyl-5,11,17,23-tetraisobutyl-4,8,10,16,20,22-hexamethyl-3,6,9,12,15,18,21,24-octaoxo-1,7,13,19-tetraoxa-4,10,16,22-tetraazacyclotetracosan-2-yl)methyl)benzyl)furan-3-carbonitrile], for which the minimal effective concentration in assay [1] was 0.0005 µM; in the assay on D. immitis L4 larvae, 0.0002 µM; in assay [2] (setting [3]), less than 1 µM; in assay [2] (setting [4]), 0.5 µM; in assay [2] (setting [5]), not above 1 µM. In addition, the DiMf/DiL4 in the assay with D. immitis L4 larvae was 2.5.
Turning to `Cc1ccc(Cc2ccc(C[C@H]3OC(=O)[C@H](CC(C)C)N(C)C(=O)[C@@H](C)OC(=O)[C@H](CC(C)C)N(C)C(=O)[C@@H](Cc4ccc(Cc5ccc(C)o5)cc4)OC(=O)[C@H](CC(C)C)N(C)C(=O)[C@@H](C)OC(=O)[C@H](CC(C)C)N(C)C3=O)cc2)o1` [Example 3-157, (3S,6R,9S,12R,15S,18R,21S,24R)-3,9,15,21-tetraisobutyl-4,6,10,16,18,22-hexamethyl-12,24-bis(4-((5-methylfuran-2-yl)methyl)benzyl)-1,7,13,19-tetraoxa-4,10,16,22-tetraazacyclotetracosan-2,5,8,11,14,17,20,23-octaone], the figures for the minimal effective concentration (in assay [1]; in the assay on D. immitis L4 larvae; in assay [2] (setting [4])) were 0.1 µM, 0.001 µM and more than 100 µM, respectively. The DiMf/DiL4 in the assay with D. immitis L4 larvae is given as 100.
Turning to `COc1ccc(C(C)c2ccc(C[C@H]3OC(=O)[C@H](CC(C)C)N(C)C(=O)[C@@H](C)OC(=O)[C@H](CC(C)C)N(C)C(=O)[C@@H](Cc4ccc(C(C)c5ccc(OC)nc5)cc4)OC(=O)[C@H](CC(C)C)N(C)C(=O)[C@@H](C)OC(=O)[C@H](CC(C)C)N(C)C3=O)cc2)cn1` (stereo partly drawn) [Example 3-207, (3S,6R,9S,12R,15S,18R,21S,24R)-3,9,15,21-tetraisobutyl-6,18-bis(4-(1-(6-methoxypyridin-3-yl)ethyl)benzyl)-4,10,12,16,22,24-hexamethyl-1,7,13,19-tetraoxa-4,10,16,22-tetraazacyclotetracosan-2,5,8,11,14,17,20,23-octaone], the minimal effective concentration in assay [1] was 0.05 µM; in the assay on D. immitis L4 larvae it was 0.001 µM; in assay [2] (setting [4]), more than 100 µM. Moreover, the DiMf/DiL4 in the assay with D. immitis L4 larvae was determined as 50.
In the case of `CC(C)C[C@H]1C(=O)O[C@H](Cc2ccc(Cc3cccnc3Br)cc2)C(=O)N(C)[C@@H](CC(C)C)C(=O)O[C@H](C)C(=O)N(C)[C@@H](CC(C)C)C(=O)O[C@H](Cc2ccc(Cc3cccnc3Br)cc2)C(=O)N(C)[C@@H](CC(C)C)C(=O)O[C@H](C)C(=O)N1C` [Example 3-329, (3S,6R,9S,12R,15S,18R,21S,24R)-6,18-bis(4-((2-bromopyridin-3-yl)methyl)benzyl)-3,9,15,21-tetraisobutyl-4,10,12,16,22,24-hexamethyl-1,7,13,19-tetraoxa-4,10,16,22-tetraazacyclotetracosan-2,5,8,11,14,17,20,23-octaone], the minimal effective concentration is 0.001 µM in assay [1], 0.0001 µM in the assay on D. immitis L4 larvae, less than 1 µM in assay [2] (setting [6]) and not above 1 µM in assay [2] (setting [5]). For the same compound, in the assay on D. immitis L4 larvae, the DiMf/DiL4 is listed as 10.
`CCOC(c1ccc(C[C@H]2OC(=O)[C@H](CC(C)C)N(C)C(=O)[C@@H](C)OC(=O)[C@H](CC(C)C)N(C)C(=O)[C@@H](Cc3ccccc3)OC(=O)[C@H](CC(C)C)N(C)C(=O)[C@@H](C)OC(=O)[C@H](CC(C)C)N(C)C2=O)cc1)c1ccc(F)c(F)c1` (stereo partly drawn) [Example 2-38, (3S,6R,9S,12R,15S,18R,21S,24R)-6-benzyl-18-(4-((3,4-difluorophenyl)(ethoxy)methyl)benzyl)-3,9,15,21-tetraisobutyl-4,10,12,16,22,24-hexamethyl-1,7,13,19-tetraoxa-4,10,16,22-tetraazacyclotetracosan-2,5,8,11,14,17,20,23-octaone]: the minimal effective concentration is 0.03 µM in assay [1]; 0.0006 µM in the assay with D. immitis L4 larvae; less than 1 µM in assay [2] (setting [3]); 0.5 µM in assay [2] (setting [4]); not above 1 µM in assay [2] (setting [5]). For the same compound, the DiMf/DiL4 in the assay on D. immitis L4 larvae stood at 50.
`CC(C)C[C@H]1C(=O)O[C@H](Cc2ccc(Cc3scnc3Cl)cc2)C(=O)N(C)[C@@H](CC(C)C)C(=O)O[C@H](C)C(=O)N(C)[C@@H](CC(C)C)C(=O)O[C@H](Cc2ccc(Cc3scnc3Cl)cc2)C(=O)N(C)[C@@H](CC(C)C)C(=O)O[C@H](C)C(=O)N1C` [Example 3-112, (3S,6R,9S,12R,15S,18R,21S,24R)-6,18-bis(4-((4-chlorothiazol-5-yl)methyl)benzyl)-3,9,15,21-tetraisobutyl-4,10,12,16,22,24-hexamethyl-1,7,13,19-tetraoxa-4,10,16,22-tetraazacyclotetracosan-2,5,8,11,14,17,20,23-octaone]: the minimal effective concentration is 0.001 µM in assay [1]; 3e-05 µM in the assay with D. immitis L4 larvae; less than 1 µM in assay [2] (setting [6]); 1 µM in assay [2] (setting [4]); not above 1 µM in assay [2] (setting [5]). In addition, the DiMf/DiL4 with D. immitis L4 larvae is 33.3.
Turning to `CC(C)C[C@H]1C(=O)O[C@H](Cc2ccc(Cc3cccnc3C(F)F)cc2)C(=O)N(C)[C@@H](CC(C)C)C(=O)O[C@H](C)C(=O)N(C)[C@@H](CC(C)C)C(=O)O[C@H](Cc2ccc(Cc3cccnc3C(F)F)cc2)C(=O)N(C)[C@@H](CC(C)C)C(=O)O[C@H](C)C(=O)N1C` [Example 3-290, (3S,6R,9S,12R,15S,18R,21S,24R)-6,18-bis[[4-[[2-(difluoromethyl)-3-pyridyl]methyl]phenyl]methyl]-3,9,15,21-tetraisobutyl-4,10,12,16,22,24-hexamethyl-1,7,13,19-tetraoxa-4,10,16,22-tetrazacyclotetracosane-2,5,8,11,14,17,20,23-octaone], the minimal effective concentration in assay [1] was 0.0003 µM; in the assay with D. immitis L4 larvae it was 0.0001 µM; in assay [2] (setting [6]) it was less than 1 µM; in assay [2] (setting [4]) it was 0.2 µM; in assay [2] (setting [5]) it was not above 1 µM. For the same compound, in the assay on D. immitis L4 larvae, the DiMf/DiL4 stood at 3.
With `CC(C)C[C@H]1C(=O)O[C@H](Cc2ccc(Cc3ccco3)cc2)C(=O)N(C)[C@@H](CC(C)C)C(=O)O[C@H](C)C(=O)N(C)[C@@H](CC(C)C)C(=O)O[C@H](Cc2ccccc2)C(=O)N(C)[C@@H](CC(C)C)C(=O)O[C@H](C)C(=O)N1C` [Example 4-32, (3S,6R,9S,12R,15S,18R,21S,24R)-6-benzyl-18-(4-(furan-2-ylmethyl)benzyl)-3,9,15,21-tetraisobutyl-4,10,12,16,22,24-hexamethyl-1,7,13,19-tetraoxa-4,10,16,22-tetraazacyclotetracosan-2,5,8,11,14,17,20,23-octaone], the minimal effective concentration is 0.003 µM in assay [1]; 0.001 µM in the assay with D. immitis L4 larvae; less than 1 µM in assay [2] (setting [3]); 1 µM in assay [2] (setting [4]); not above 1 µM in assay [2] (setting [5]). The DiMf/DiL4 in the assay with D. immitis L4 larvae is reported as 3.
